Results on five molecules are retold here after US7244762B2, “Antitumoral d-homoestra-1,3,5 (10)-trien-3-yl 2-substituted sulfamates” (Sterix Limited, priority 2003, dated 2007).

Molecules are shown by their SMILES.

The target of assay [1] is T1, tubulin (microtubular protein purified from pig brains) (Sus scrofa, UniProt P02550+P02554).
T1 construct: microtubular protein was purified from pig brains via cydic assembling/disassembling; from tissue; host or cells: pig brain
The assay is described as follows: Inhibition of tubulin polymerization (turbidimetry at 340 nm). The class given is biochemical. As to conditions: pig brain microtubular protein 1 mg/ml, 0.25 mmol GTP, 37° C. Here is the method: The in-vitro testing of the tubulin polymerization influence was performed as follows:
According to Shelanski et al. (Shelanski et al. Proc. Natl. Acad. Sci. USA 1973, 70, 765-8), microtubular protein was purified from pig brains via cydic assembling/disassembling. The buffer system used had the following composition: 20 mmol of PIPES (1,4-piperazine-diethane-sulfonic acid, pKa 6.8), 80 mmol of NaCl, 0.5 mmol of MgCl2, 1 mmol of EGTA [ethylene glycol-bis-(2-aminoethylene)-tetraacetic acid].
For active ingredient testing, protein concentrations of 1 mg/ml (about 10^−5 mmol of tubulin) were used. The determination of protein was carried out according to the Lowry Method (Lowry et al. J. Biol. Chem. 1951, 193, 265-75) with bovine serum albumin as a standard. The assembling of microtubuli was carried out in the presence of 0.25 mmol of GTP and heating the samples to 37° C.
The microtubulus formation was examined by means of turbidimetry at a wavelength of 340 nm.
Testing of the active ingredients was carried out by their addition at the beginning of the assembling or in the state of equilibrium. […] To monitor action and to evaluate the measured turbidity values, a transmission electron microscopic study (CEM 902 A, Zeiss/Oberkochen) of the assemblates was always performed after negative staining with 1% aqueous uranyl acetate.

The subject of assay [2] is DU145 human prostate tumor cells. Kind of assay: Inhibition of cell proliferation, crystal violet staining. The format is cell-based. As to conditions: DU145, 4 days incubation. On the procedure: (§1) Cell cultures of the following cell lines were prepared in 96-well microtiter plates: • 1. MaTu/ADR multidrug-resistant human breast tumor cells (Epo GmbH Berlin), 5000 cells/well. • 2. HCT116 human colon tumor cells (ATCC CCL-247), 3000 cells/well. • 3. NCl-H460 human non-small-cell lung cancer cells (ATCC HTB-177), 3000 cells/well. • 4. DU145 human prostate tumor cells (ATCC HTB-81), 5000 cells/well. • 5. HMVEC human primary dermal microvascular endothelial cells, 7500 cells/well.
(§2) After 24 hours of incubation in a cell culture incubator at 37° C., the cells of a microtiter plate were stained with crystal violet (reference plate), while the cells in the test plates were incubated for 4 days with the test substances in the concentrations […], as well as with the DMSO solvent by itself (solvent control). The cell proliferation was determined by staining cells with crystal violet. The extinction of the crystal violet was determined by photometry at 595 nm. The percentage of the change in the cell number in the test plates was determined after the extinction values were normalized to the reference plate (0%) and to the solvent control (100%). The semi-maximal inhibition of the cell growth (IC50) was determined as the substance concentration, in which 50% of the cell number of the solvent controls were present.

The test system of assay [3] is NCl-H460 human non-small-cell lung cancer cells. The description is as above. The format is cell-based. As to conditions: NCl-H460, 4 days incubation. Here is the method: as §1, §2
For assay [4], the system named is HMVEC human primary dermal microvascular endothelial cells. The assay is described as above. The format is cell-based. The note with it: 4 days incubation. On the procedure: as §1, §2
Assay [5] relates to MaTu/ADR multidrug-resistant human breast tumor cells. The assay is described as above. The class given is cell-based. The note with it: 4 days incubation. On the procedure: as §1, §2
The subject of assay [6] is HCT116 human colon tumor cells. Described as above. The format is cell-based. As to conditions: HCT116, 4 days incubation. On the procedure: as §1, §2

T1 sequence (P02550 whole entry): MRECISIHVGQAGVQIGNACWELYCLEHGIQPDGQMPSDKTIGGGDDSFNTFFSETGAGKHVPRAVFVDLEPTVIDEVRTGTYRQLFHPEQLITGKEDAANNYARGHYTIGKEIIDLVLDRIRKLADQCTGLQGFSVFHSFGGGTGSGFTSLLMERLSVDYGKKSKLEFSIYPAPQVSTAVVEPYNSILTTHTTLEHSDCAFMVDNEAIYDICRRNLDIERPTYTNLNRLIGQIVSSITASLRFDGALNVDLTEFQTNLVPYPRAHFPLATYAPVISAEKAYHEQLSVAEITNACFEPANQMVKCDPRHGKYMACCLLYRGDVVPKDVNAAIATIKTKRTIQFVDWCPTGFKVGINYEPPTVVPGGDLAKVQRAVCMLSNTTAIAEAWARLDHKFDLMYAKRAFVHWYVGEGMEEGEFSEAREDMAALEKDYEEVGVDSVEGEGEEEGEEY
T1 sequence (P02554 whole entry): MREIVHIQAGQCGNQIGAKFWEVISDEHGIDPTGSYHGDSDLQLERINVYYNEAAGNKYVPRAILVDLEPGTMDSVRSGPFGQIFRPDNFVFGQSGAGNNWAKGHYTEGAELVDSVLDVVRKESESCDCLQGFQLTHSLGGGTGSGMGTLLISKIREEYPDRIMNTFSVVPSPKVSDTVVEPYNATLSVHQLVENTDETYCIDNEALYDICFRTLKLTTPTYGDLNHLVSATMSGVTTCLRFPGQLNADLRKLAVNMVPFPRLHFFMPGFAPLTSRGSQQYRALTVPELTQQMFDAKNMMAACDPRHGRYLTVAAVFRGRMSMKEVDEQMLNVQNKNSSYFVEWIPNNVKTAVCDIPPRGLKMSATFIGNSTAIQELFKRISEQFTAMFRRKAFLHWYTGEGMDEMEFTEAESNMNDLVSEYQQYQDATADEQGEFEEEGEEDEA

For `COc1cc2c(cc1O)CC[C@@H]1[C@@H]2CC[C@]2(C)[C@@H](O)CC[C@@H]12` [2-Methoxyestradiol, reference compound], the half-maximal inhibitory concentration (IC50) (as a rule, the midpoint of a concentration-inhibition curve) was 2700 nM in assay [1]; 1900 nM in assay [2]; 1800 nM in assay [3]; 2200 nM in assay [4]; 200 nM in assay [5]; 1100 nM in assay [6].

Turning to `COc1cc2c(cc1OS(N)(=O)=O)CC[C@@H]1[C@@H]2CC[C@]2(C)C(=O)CCC[C@@H]12` [(1), 2-Methoxy-17a-oxo-17a-homoestra-1,3,5(10)-trien-3-yl Sulfamate], the IC50 was 500 nM in assay [2]; 180 nM in assay [3]; 220 nM in assay [4]; less than 100 nM in assay [5]; 180 nM in assay [6].

With `COc1cc2c(cc1OS(N)(=O)=O)CC[C@@H]1[C@@H]2CC[C@]2(C)CCCC[C@@H]12` [(2), 2-Methoxy-17a-homoestra-1,3,5(10)-trien-3-yl Sulfamate], the 50% inhibitory concentration (IC50) in assay [1] stood at 950 nM; in assay [2] (Homo sapiens, DU-145, 96 h) it was 600 nM; in assay [3] (Homo sapiens, 96 h), 600 nM; in assay [4] (Homo sapiens, 96 h), 500 nM; in assay [5] (Homo sapiens, 96 h), 200 nM; in assay [6] (Homo sapiens, HCT-116, 96 h), 600 nM.

With `COc1cc2c(cc1OS(N)(=O)=O)CC[C@@H]1[C@@H]2CC[C@]2(C)[C@@H](OS(N)(=O)=O)CCC[C@@H]12` [(4), 2-Methoxy-17a-homoestra-1,3,5(10)-triene-3,17aβ-diyl Bissulfamate], the IC50 in assay [2] came to 2800 nM; in assay [3], 1800 nM; in assay [4] it was 600 nM; in assay [5], 800 nM; in assay [6] it was 1800 nM.

Take `CC(=O)O[C@H]1C(=O)[C@@]2(C)[C@H]([C@H](OC(=O)c3ccccc3)[C@]3(O)C[C@H](OC(=O)[C@H](O)[C@@H](NC(=O)c4ccccc4)c4ccccc4)C(C)=C1C3(C)C)[C@]1(OC(C)=O)CO[C@@H]1C[C@@H]2O` [Taxol, reference compound]: the IC50 in assay [2] (Homo sapiens, DU-145, 96 h) amounted to 4 nM; in assay [3] (Homo sapiens, 96 h) it was 4 nM; in assay [4] (Homo sapiens, 96 h), 4 nM; in assay [5] (Homo sapiens, 96 h) it was 400 nM; in assay [6] (Homo sapiens, HCT-116, 96 h) it was 4 nM.
